Assay results reported in ChEMBL document CHEMBL1201862, “PubChem BioAssay data set” (2004).
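Five concentrations, 48 hours, 96-well plates. GI50 = concentration required for 50% inhibition of growth.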 Calls of active or inactive are those of the source. No stated cut-off is given here; in the data, active = GI50 up to about 1.1 µM and inactive = higher.

Assays:
Assay in all cases: NCI anticancer screen, dose series, 48 h
SF-268 = system: SF-268
SK-MEL-5 = system: SK-MEL-5
CCRF-CEM = system: CCRF-CEM
IGROV-1 = system: IGROV-1
COLO 205 = system: COLO 205
BT-549 = system: BT-549
NCI-H460 = system: NCI-H460
DU-145 = system: DU-145
CAKI-1 = system: CAKI-1
SNB-75 = system: SNB-75
HL-60 = system: HL-60
Malme-3M = system: Malme-3M
SK-MEL-28 = system: SK-MEL-28
A549 = system: A549
UACC-62 = system: UACC-62
ACHN = system: ACHN
T47D = system: T47D
HCT-116 = system: HCT-116
MDA-MB-435 = system: MDA-MB-435
SNB-19 = system: SNB-19
Hs-578T = system: Hs-578T
KM12 = system: KM12
HOP-92 = system: HOP-92
LOX IMVI = system: LOX IMVI
PC-3 = system: PC-3
MOLT-4 = system: MOLT-4
NCI-H226 = system: NCI-H226
HT-29 = system: HT-29
HOP-62 = system: HOP-62
SF-295 = system: SF-295
A498 = system: A498
NCI-H522 = system: NCI-H522
UACC-257 = system: UACC-257
M14 = system: M14
SF-539 = system: SF-539
NCI/ADR-RES = system: NCI/ADR-RES
HCT-15 = system: HCT-15
MCF7 = system: MCF7
OVCAR-4 = system: OVCAR-4
RXF 393 = system: RXF 393
TK-10 = system: TK-10
OVCAR-5 = system: OVCAR-5
MDA-MB-231 = system: MDA-MB-231
SK-OV-3 = system: SK-OV-3
K562 = system: K562
OVCAR-8 = system: OVCAR-8
RPMI-8226 = system: RPMI-8226
SN12C = system: SN12C
786-0 = system: 786-0
U-251 = system: U-251
SK-MEL-2 = system: SK-MEL-2
HCC 2998 = system: HCC 2998
UO-31 = system: UO-31
EKVX = system: EKVX
MDA-N = system: MDA-N
SR = system: SR
SW-620 = system: SW-620
NCI-H23 = system: NCI-H23
OVCAR-3 = system: OVCAR-3

Question: What does the source list for `CCCCCCCCCCCC(=O)N(CCCCCCCCC)CC(O)C(O)C(OC1OC(CO)C(O)C(O)C1O)C(O)CO` (stereo not drawn)?
Answer: GI50 (SF-268): 19.4 µM (inactive); GI50 (SK-MEL-5): 17.4 µM (inactive); GI50 (CCRF-CEM): 24 µM (inactive); GI50 (IGROV-1): 18.3 µM (inactive); GI50 (COLO 205): 20.7 µM (inactive); GI50 (BT-549): 19.4 µM (inactive); GI50 (NCI-H460): 18.1 µM (inactive); GI50 (DU-145): 18.5 µM (inactive); GI50 (CAKI-1): 20.7 µM (inactive); GI50 (SNB-75): 18.5 µM (inactive); GI50 (HL-60): 25.6 µM (inactive); GI50 (Malme-3M): 19.5 µM (inactive); GI50 (SK-MEL-28): 19.2 µM (inactive); GI50 (A549): 21 µM (inactive); GI50 (UACC-62): 17.7 µM (inactive); GI50 (ACHN): 17.7 µM (inactive); GI50 (T47D): 20.5 µM (inactive); GI50 (HCT-116): 17.7 µM (inactive); GI50 (MDA-MB-435): 17.7 µM (inactive); GI50 (SNB-19): 20.6 µM (inactive); GI50 (Hs-578T): 35.3 µM (inactive); GI50 (KM12): 16.7 µM (inactive); GI50 (HOP-92): 18.6 µM (inactive); GI50 (LOX IMVI): 20.9 µM (inactive); GI50 (PC-3): 19.2 µM (inactive); GI50 (MOLT-4): 23.2 µM (inactive); GI50 (NCI-H226): 20.4 µM (inactive); GI50 (HT-29): 19.2 µM (inactive); GI50 (HOP-62): 20.6 µM (inactive); GI50 (SF-295): 18.4 µM (inactive); GI50 (A498): 23.1 µM (inactive); GI50 (NCI-H522): 22.1 µM (inactive); GI50 (UACC-257): 16.9 µM (inactive); GI50 (M14): 19.4 µM (inactive); GI50 (SF-539): 21.4 µM (inactive); GI50 (NCI/ADR-RES): 20.1 µM (inactive); GI50 (HCT-15): 16.9 µM; GI50 (MCF7): 35.8 µM (inactive); GI50 (OVCAR-4): 21 µM (inactive); GI50 (RXF 393): 20.7 µM (inactive); GI50 (TK-10): 15.2 µM (inactive); GI50 (OVCAR-5): 22.7 µM (inactive); GI50 (MDA-MB-231): 26 µM (inactive); GI50 (SK-OV-3): > 10 µM (inactive); GI50 (K562): 26.9 µM (inactive); GI50 (OVCAR-8): 20.6 µM (inactive); GI50 (RPMI-8226): 34 µM (inactive); GI50 (SN12C): 19.1 µM (inactive); GI50 (786-0): 17.5 µM (inactive); GI50 (U-251): 20.4 µM (inactive); GI50 (SK-MEL-2): 19.7 µM (inactive); GI50 (HCC 2998): 16.9 µM (inactive); GI50 (UO-31): 17 µM (inactive); GI50 (EKVX): 17.3 µM (inactive); GI50 (MDA-N): 20.4 µM (inactive); GI50 (SR): 24.7 µM (inactive); GI50 (SW-620): 18.8 µM (inactive); GI50 (NCI-H23): 17.6 µM (inactive); GI50 (OVCAR-3): 20.2 µM (inactive)

Question: For `CCOC(=O)c1ccc(NC(=O)O/N=C(/Cl)C(C)C)cc1`, which GI50 (SF-268) is on record?
Answer: Its GI50 is 16.5 µM (inactive).

Question: What about the GI50 (SK-MEL-5) of the same compound?
Answer: The GI50 was 16.1 µM (inactive).

Question: And the GI50 (CCRF-CEM)?
Answer: The GI50 was 0.953 µM (active).

Question: And the GI50 (IGROV-1)?
Answer: The GI50 was 19.4 µM (inactive).

Question: And the GI50 (COLO 205)?
Answer: Its GI50 is 2.42 µM (inactive).

Question: And the GI50 (BT-549)?
Answer: The GI50 was 14.9 µM (inactive).

Question: And the GI50 (NCI-H460)?
Answer: Its GI50 is 19.6 µM (inactive).

Question: What about the GI50 (DU-145) of the same compound?
Answer: The GI50 was 28.1 µM (inactive).

Question: And the GI50 (CAKI-1)?
Answer: Its GI50 is 4.63 µM (inactive).

Question: What about the GI50 (SNB-75) of the same compound?
Answer: Its GI50 is 12.9 µM (inactive).

Question: What about the GI50 (HL-60) of the same compound?
Answer: The GI50 was 1.23 µM (inactive).

Question: And the GI50 (Malme-3M)?
Answer: Its GI50 is 3.76 µM (inactive).

Question: What about the GI50 (SK-MEL-28) of the same compound?
Answer: Its GI50 is 16.2 µM (inactive).

Question: And the GI50 (A549)?
Answer: The GI50 was 21.7 µM (inactive).

Question: What about the GI50 (UACC-62) of the same compound?
Answer: Its GI50 is 18.9 µM (inactive).

Question: And the GI50 (ACHN)?
Answer: The GI50 was 14 µM (inactive).

Question: And the GI50 (T47D)?
Answer: Its GI50 is 2.75 µM (inactive).

Question: What about the GI50 (HCT-116) of the same compound?
Answer: Its GI50 is 8.05 µM (inactive).

Question: And the GI50 (MDA-MB-435)?
Answer: Its GI50 is 16 µM (inactive).

Question: What about the GI50 (SNB-19) of the same compound?
Answer: Its GI50 is 24 µM (inactive).

Question: And the GI50 (Hs-578T)?
Answer: Its GI50 is 29.5 µM (inactive).

Question: And the GI50 (KM12)?
Answer: Its GI50 is 18.3 µM (inactive).

Question: And the GI50 (HOP-92)?
Answer: The GI50 was 1.82 µM (inactive).

Question: And the GI50 (LOX IMVI)?
Answer: Its GI50 is 4.95 µM (inactive).

Question: And the GI50 (PC-3)?
Answer: Its GI50 is 20.4 µM (inactive).

Question: What about the GI50 (MOLT-4) of the same compound?
Answer: Its GI50 is 1.92 µM (inactive).

Question: What about the GI50 (NCI-H226) of the same compound?
Answer: Its GI50 is 24.4 µM (inactive).

Question: And the GI50 (HT-29)?
Answer: The GI50 was 20.7 µM (inactive).

Question: What about the GI50 (HOP-62) of the same compound?
Answer: Its GI50 is 17 µM (inactive).

Question: And the GI50 (SF-295)?
Answer: Its GI50 is 19.1 µM (inactive).

Question: And the GI50 (A498)?
Answer: The GI50 was 14.7 µM (inactive).

Question: And the GI50 (NCI-H522)?
Answer: The GI50 was 2.07 µM (inactive).

Question: And the GI50 (UACC-257)?
Answer: The GI50 was 16.9 µM (inactive).

Question: And the GI50 (M14)?
Answer: Its GI50 is 1.16 µM (inactive).

Question: And the GI50 (SF-539)?
Answer: Its GI50 is 18.6 µM (inactive).

Question: And the GI50 (NCI/ADR-RES)?
Answer: Its GI50 is 19 µM (inactive).

Question: And the GI50 (HCT-15)?
Answer: Its GI50 is 8.59 µM.

Question: What about the GI50 (MCF7) of the same compound?
Answer: Its GI50 is 1.98 µM (inactive).

Question: What about the GI50 (OVCAR-4) of the same compound?
Answer: Its GI50 is 14.5 µM (inactive).

Question: What about the GI50 (RXF 393) of the same compound?
Answer: Its GI50 is 16.3 µM (inactive).

Question: And the GI50 (TK-10)?
Answer: Its GI50 is 16.4 µM (inactive).

Question: What about the GI50 (OVCAR-5) of the same compound?
Answer: The GI50 was 17.6 µM (inactive).

Question: What about the GI50 (MDA-MB-231) of the same compound?
Answer: Its GI50 is 19.5 µM (inactive).

Question: What about the GI50 (SK-OV-3) of the same compound?
Answer: The GI50 was 18.9 µM (inactive).

Question: And the GI50 (K562)?
Answer: Its GI50 is 1.56 µM (inactive).

Question: And the GI50 (OVCAR-8)?
Answer: The GI50 was 13.9 µM (inactive).

Question: And the GI50 (RPMI-8226)?
Answer: The GI50 was 4.49 µM (inactive).

Question: And the GI50 (SN12C)?
Answer: The GI50 was 19.9 µM (inactive).

Question: What about the GI50 (786-0) of the same compound?
Answer: The GI50 was 6.67 µM (inactive).

Question: And the GI50 (U-251)?
Answer: The GI50 was 19.1 µM (inactive).

Question: What about the GI50 (SK-MEL-2) of the same compound?
Answer: The GI50 was 15.1 µM (inactive).

Question: What about the GI50 (HCC 2998) of the same compound?
Answer: Its GI50 is 16.6 µM (inactive).

Question: What about the GI50 (UO-31) of the same compound?
Answer: Its GI50 is 17.8 µM (inactive).

Question: What about the GI50 (EKVX) of the same compound?
Answer: The GI50 was 14.9 µM (inactive).

Question: And the GI50 (MDA-N)?
Answer: The GI50 was 15.8 µM (inactive).

Question: And the GI50 (SR)?
Answer: Its GI50 is 2.87 µM (inactive).

Question: What about the GI50 (SW-620) of the same compound?
Answer: Its GI50 is 2.09 µM (inactive).

Question: And the GI50 (NCI-H23)?
Answer: The GI50 was 20 µM (inactive).

Question: And the GI50 (OVCAR-3)?
Answer: Its GI50 is 5.28 µM (inactive).
